# Several values for one entry are separate records, joined by “and”; a condition that tells them apart may be missing. Equal entries are not always repeated. Where two headings read alike, the source gives them in different places.
# Columns and labels:
# [1] = target: T1, AAL (Aleuria Aurantia lectin) (Aleuria aurantia, UniProt P18891); test: COIN-CaR-nMS; assay type: binding; settings: N-glycan natural libraries; pH 6.9
# T1 construct: purchased Vector Laboratories (Newark, CA, USA)
# T1 sequence (P18891 1-313): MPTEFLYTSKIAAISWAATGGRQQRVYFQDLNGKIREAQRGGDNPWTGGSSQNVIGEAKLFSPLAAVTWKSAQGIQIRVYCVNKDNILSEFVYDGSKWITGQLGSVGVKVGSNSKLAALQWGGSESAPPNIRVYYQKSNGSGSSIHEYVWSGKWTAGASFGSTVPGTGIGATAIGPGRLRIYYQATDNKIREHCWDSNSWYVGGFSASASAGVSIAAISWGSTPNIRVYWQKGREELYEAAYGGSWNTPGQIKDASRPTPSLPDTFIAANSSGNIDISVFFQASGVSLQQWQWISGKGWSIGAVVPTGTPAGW
# [2] = target: RCA-I (Ricinus communis agglutinin) (Ricinus communis, UniProt P06750); assay type: binding; settings: pH 6.9; read-out: Kd (Native)
# [3] = target: SNA (Sambucus nigra agglutinin) (Sambucus nigra, UniProt Q41358); test: biochemical; assay type: binding
# [4] = system: MAA (Maackia amurensis agglutinin); test: COIN-CaR-nMS; assay type: binding
# SARS-CoV-2 RBD = SARS-CoV-2 RBD (Severe acute respiratory syndrome coronavirus 2, UniProt P0DTC2); test: biochemical; assay type: binding; settings: pH 6.9
# Sig7-Fc = Sig7-Fc (Homo sapiens, UniProt Q9Y286); test: COIN-CaR-nMS; assay type: binding; parameters: Siglec 7-Fc (Sig7-Fc, residue 1–345, MW 150 kDa); His6 (C); made in house; host or cells: wild-type CHO cells
# MAA = test: Isothermal titration calorimetry (ITC); assay type: binding, Maackia amurensis; settings: ammonium acetate 200 mM, 25 °C, read-out: apparent Kd by ITC (Literature)
# Siglec-7 = settings: ITC; cited from earlier work
# GAL-3C [5] = target: T2, GAL-3C (Homo sapiens, UniProt P17931); parameters: human Galectin-3 (GAL-3C, residues 107–250, molecular weight (MW) 16 327 Da); settings: known Kd used to calculate glycan concentration; cited from earlier work
# CD22-Fc = target: T3, CD22-Fc (Homo sapiens, UniProt P20273); test: COIN-CaR-nMS; assay type: binding; settings: N-glycan natural libraries and G21; pH 6.9
# T3 construct: His6 (C); made in house; host or cells: wild-type CHO cells
# T3 sequence (P20273 20-332 limits assumed): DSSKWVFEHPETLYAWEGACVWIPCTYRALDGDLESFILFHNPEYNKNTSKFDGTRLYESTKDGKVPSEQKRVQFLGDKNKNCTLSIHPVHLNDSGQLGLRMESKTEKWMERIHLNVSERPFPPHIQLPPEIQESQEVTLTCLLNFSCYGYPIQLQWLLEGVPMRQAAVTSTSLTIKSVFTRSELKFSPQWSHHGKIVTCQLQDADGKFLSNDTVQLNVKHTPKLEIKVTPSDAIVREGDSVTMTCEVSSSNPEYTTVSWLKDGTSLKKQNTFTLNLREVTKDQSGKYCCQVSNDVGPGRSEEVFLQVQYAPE
# SNA = SNA (Sambucus nigra, UniProt Q41358); test: biochemical; assay type: binding; settings: apparent Kd by ITC (Literature)
# [6] = system: GFP-encoding SARS-CoV-2 pseudotyped virus, ACE2+ HEK293 cells; assay type: cell-based
# [7] = system: SARS-CoV-2 (hCoV-19/Canada/ON-VIDO-01/2020), ACE2+ HEK293 cells; assay type: cell-based
# GAL-7 homodimer [8] = target: T4, GAL-7 homodimer (Homo sapiens, UniProt P47929); test: COIN-nMS affinity measurement; assay type: binding; parameters: key: NB: No binding detected; settings: glycans present as a mixture (G2, G5-G13); average of eight measurements; pH 6.9
# T4 construct: made in house
# GAL-7 homodimer [9] = target: T4, GAL-7 homodimer; test: direct nMS affinity measurement; assay type: binding; parameters: key: NB: No binding detected; settings: glycans present as a mixture (G2, G5-G13); pH 6.9
# GNA [10] = target: T5, GNA (Galanthus nivalis, UniProt P30617); test: COIN-CaR-nMS; assay type: binding; settings: purified glycan; ammonium acetate 200 mM, pH 6.9
# T5 sequence (P30617 24-128 limits assumed): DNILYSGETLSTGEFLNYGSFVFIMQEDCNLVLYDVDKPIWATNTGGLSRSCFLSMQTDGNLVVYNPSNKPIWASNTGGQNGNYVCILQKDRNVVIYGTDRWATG
# GNA [11] = target: T5, GNA; test: direct nMS (ESI-MS) measurement; assay type: binding; settings: read-out: Kd by direct nMS (column Kd (Literature))
# GAL-3C [12] = target: T2, GAL-3C; test: COIN-nMS affinity measurement; assay type: binding; parameters: human Galectin-3 (GAL-3C, residues 107–250, molecular weight (MW) 16 327 Da); key: NB: No binding detected; settings: glycans present as a mixture (G2, G5-G13); average of eight measurements; pH 6.9
# GAL-3C [13] = target: T2, GAL-3C; test: direct nMS (ESI-MS) affinity measurement at known concentrations; assay type: binding; parameters: human Galectin-3 (GAL-3C, residues 107–250, molecular weight (MW) 16 327 Da); key: NB: No binding detected; settings: glycans present as a mixture (G2, G5-G13); pH 6.9
# DC-SIGN CRD [14] = target: T6, DC-SIGN CRD (Homo sapiens, UniProt Q9NNX6); test: COIN-nMS affinity measurement; assay type: binding; parameters: The carbohydrate recognition domain (CRD) of DC-SIGN (residues 250–404, MW 17 794 Da); made in house
# T6 sequence (Q9NNX6 250-404): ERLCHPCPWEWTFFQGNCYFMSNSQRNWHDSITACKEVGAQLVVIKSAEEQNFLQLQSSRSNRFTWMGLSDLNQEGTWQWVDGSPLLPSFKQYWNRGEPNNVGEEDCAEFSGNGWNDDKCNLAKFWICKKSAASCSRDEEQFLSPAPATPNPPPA
# DC-SIGN CRD [15] = target: T6, DC-SIGN CRD; test: direct nMS affinity measurement; assay type: binding; parameters: The carbohydrate recognition domain (CRD) of DC-SIGN (residues 250–404, MW 17 794 Da); made in house; settings: pH 7.4
# [16] = N-glycan natural libraries and purified oligosaccharides, pH 6.9, read-out: Kd
# T4 sequence (P47929 whole entry): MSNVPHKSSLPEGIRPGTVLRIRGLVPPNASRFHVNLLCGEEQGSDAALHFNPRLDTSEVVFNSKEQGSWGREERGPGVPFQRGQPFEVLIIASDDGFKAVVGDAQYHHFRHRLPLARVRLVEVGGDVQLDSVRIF
# Chain of Sig7-Fc (Q9Y286 19-345): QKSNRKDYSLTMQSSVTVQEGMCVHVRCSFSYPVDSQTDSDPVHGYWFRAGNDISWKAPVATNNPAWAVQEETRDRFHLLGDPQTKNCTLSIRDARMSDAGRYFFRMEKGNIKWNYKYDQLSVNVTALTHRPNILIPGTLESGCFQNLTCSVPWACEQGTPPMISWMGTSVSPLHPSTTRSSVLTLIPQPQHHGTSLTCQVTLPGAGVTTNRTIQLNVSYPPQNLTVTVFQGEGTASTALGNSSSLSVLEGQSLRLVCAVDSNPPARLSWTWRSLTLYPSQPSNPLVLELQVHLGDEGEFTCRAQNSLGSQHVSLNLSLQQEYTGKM
# Chain of SNA (Sambucus nigra agglutinin) (Q41358 309-570 limits assumed): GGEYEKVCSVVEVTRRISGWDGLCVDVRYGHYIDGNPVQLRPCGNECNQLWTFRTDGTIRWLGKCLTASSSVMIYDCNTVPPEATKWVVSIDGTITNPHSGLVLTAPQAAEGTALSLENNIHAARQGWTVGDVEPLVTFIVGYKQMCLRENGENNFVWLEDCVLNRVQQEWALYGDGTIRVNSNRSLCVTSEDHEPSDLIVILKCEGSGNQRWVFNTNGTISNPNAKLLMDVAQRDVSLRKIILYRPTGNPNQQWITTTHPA
# Chain of SNA (Sambucus nigra agglutinin) (Q41358 29-289 partner limits assumed): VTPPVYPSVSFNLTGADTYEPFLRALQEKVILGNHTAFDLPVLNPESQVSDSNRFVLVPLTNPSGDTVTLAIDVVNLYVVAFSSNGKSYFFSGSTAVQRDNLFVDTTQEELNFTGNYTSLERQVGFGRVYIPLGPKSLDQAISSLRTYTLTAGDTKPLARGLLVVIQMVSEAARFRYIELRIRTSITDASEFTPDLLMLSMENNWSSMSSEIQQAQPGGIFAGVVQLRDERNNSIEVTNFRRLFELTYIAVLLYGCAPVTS
# T2 sequence (P17931 107-250): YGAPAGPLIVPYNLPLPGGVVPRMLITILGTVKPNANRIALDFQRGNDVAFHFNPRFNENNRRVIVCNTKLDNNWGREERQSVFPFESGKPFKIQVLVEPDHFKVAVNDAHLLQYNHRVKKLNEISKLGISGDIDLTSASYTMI
# Chain of SNA (Q41358 309-570 limits assumed): as the sequence (Q41358 309-570 limits assumed) above
# Chain of SNA (Q41358 29-289 partner limits assumed): as the sequence (Q41358 29-289 partner limits assumed) above
molecule,measurement,setting,value
CC(=O)N[C@H]1[C@H](O[C@H]2[C@H](O)[C@@H](NC(C)=O)C(O)O[C@@H]2CO[C@@H]2O[C@@H](C)[C@@H](O)[C@@H](O)[C@@H]2O)O[C@H](CO)[C@@H](O[C@@H]2O[C@H](CO[C@H]3O[C@H](CO)[C@@H](O)[C@H](O)[C@@H]3O[C@@H]3O[C@H](CO)[C@@H](O)[C@H](O)[C@H]3NC(C)=O)[C@@H](O)[C@H](O[C@H]3O[C@H](CO)[C@@H](O)[C@H](O)[C@@H]3O[C@@H]3O[C@H](CO)[C@@H](O)[C@H](O)[C@H]3NC(C)=O)[C@@H]2O)[C@@H]1O (stereo partly shown) [HexNAc4Hex3Fuc1],Kd,[1],2.6 ± 0.57 µM
same,Kd,[2],1.73 ± 0.08 µM
"CC(=O)N[C@H]1[C@H]([C@H](O)[C@H](O)CO)O[C@@](OC[C@H]2O[C@@H](O[C@H]3[C@H](O)[C@@H](NC(C)=O)C(O)O[C@@H]3CO)[C@H](O)[C@@H](O)[C@H]2O)(C(=O)O)C[C@@H]1O (stereo partly drawn) [Glycan G23, α-D-Neu5Ac-(2→6)-β-D-Gal-(1→4)-D-GlcNAc]",Kd,[3]; Kd (COIN-CaR-nMS),0.6 µM
same,Kd,"[3]; Kd (COIN-CaR-nMS), two ligands",700 nM and 900 nM and 400 nM (2×) and 300 nM and 600 nM
same,Kd,"[3]; pH 6.9, read-out: Kd, Native library (-NeuS)",0.55 ± 0.16 µM
same,fold weaker binding than G25,[4],2 fold
same,Kd,SARS-CoV-2 RBD,76 ± 9 µM
same,Kd,Sig7-Fc; [16],265 ± 66 µM
"CC(=O)N[C@H]1[C@H]([C@H](O)[C@H](O)CO)O[C@@](O[C@H]2[C@@H](O)[C@@H](CO)O[C@@H](O[C@H]3[C@H](O)[C@@H](O)C(O)O[C@@H]3CO)[C@@H]2O)(C(=O)O)C[C@@H]1O (stereo partly drawn) [Glycan G22, α-D-Neu5Ac-(2→3)-β-D-Gal-(1→4)-D-Glc]",Kd,MAA,4 ± 2 µM
same,Kd,Siglec-7,680 µM
α-D-GalNAc(1→3)-[α-L-Fuc(1→2)]-β-Gal(1→4)-D-GlcNAc [Glycan G24],Kd,GAL-3C [5],7.2 ± 0.4 µM
"CC(=O)N[C@H]1[C@H]([C@H](O)[C@H](O)CO)O[C@@](OC[C@H]2O[C@@H](O[C@H]3[C@H](O)[C@@H](O)C(O)O[C@@H]3CO)[C@H](O)[C@@H](O)[C@H]2O)(C(=O)O)C[C@@H]1O (stereo partly drawn) [Glycan G21, α-D-Neu5Ac-(2→6)-β-D-Gal-(1→4)-D-Glc]",fold weaker ligand than G23,[3],3 fold
same,Kd,[3]; Kd (COIN-CaR-nMS),1.6 ± 0.4 µM
same,Kd,"[3]; Kd (COIN-CaR-nMS), two ligands",2 µM and 1.5 µM and 3.3 µM and 1.7 µM and 1.6 µM and 1.8 µM
same,Kd,CD22-Fc,40 µM
same,Kd,SNA,1.98 µM and 2 µM
same,Kd,Siglec-7,240 µM
same,Kd,"Sig7-Fc; G21 0.5 μM and G29 30 μM, read-out: Kd (COIN-CaR-nMS), two ligands",284 ± 70 µM
same,Kd,"Sig7-Fc; G21 1.0 μM and G29 30 μM, read-out: Kd (COIN-CaR-nMS), two ligands",239 ± 50 µM
same,Kd,"Sig7-Fc; G21 5 μM and G29 30 μM, read-out: Kd (COIN-CaR-nMS), two ligands",366 ± 10 µM
same,Kd,"Sig7-Fc; G21 10 μM and G29 30 μM, read-out: Kd (COIN-CaR-nMS), two ligands",249 ± 20 µM
same,Kd,Sig7-Fc; [16],236 µM
O=C1N[C@@H]2[C@@H](O)[C@@H](O)[C@H](O)[C@@H](CO)N2C1=O [kifunensine],infection by pseudotyped virus (%GFP+ cells),[6],decreased significantly
same,"infection by authentic virus (viral titers, PFU)",[7],concentration-dependent decrease in infection
"OC[C@H]1O[C@H](O[C@@H]2[C@@H](OC[C@H]3O[C@H](OC[C@H]4OC(O)[C@@H](O)[C@@H](O[C@H]5O[C@H](CO)[C@@H](O)[C@H](O)[C@@H]5O[C@H]5O[C@H](CO)[C@@H](O)[C@H](O)[C@@H]5O[C@H]5O[C@H](CO)[C@@H](O)[C@H](O)[C@@H]5O)[C@@H]4O)[C@@H](O)[C@@H](O[C@H]4O[C@H](CO)[C@@H](O)[C@H](O)[C@@H]4O[C@H]4O[C@H](CO)[C@@H](O)[C@H](O)[C@@H]4O)[C@@H]3O)O[C@H](CO)[C@@H](O)[C@@H]2O)[C@@H](O)[C@@H](O)[C@@H]1O (stereo partly drawn) [Glycan G5, α-D-Man-(1→2)-α-D-Man-(1→6)-[Man-(1→2)-α-D-Man-(1→3)]-α-D-Man-(1→6)-[Man-(1→2)-α-D-Man-(1→2)-α-D-Man-(1→3)]-α-D-Man]",Kd (COIN-nMS),GAL-7 homodimer [8],NB and do not bind
same,Kd (nMS),GAL-7 homodimer [9],NB
same,Kd,GNA [10],553.2 ± 1 µM
same,Kd,GNA [11],774 µM
same,Kd (COIN-nMS),GAL-3C [12],NB and do not bind
same,Kd (nMS),GAL-3C [13],NB
same,Kd,"DC-SIGN CRD [14]; global fit of data sets at 75, 100, 125 µM glycan, read-out: Kd (COIN-nMS, global fit)",235 ± 12.6 µM
same,Kd,"DC-SIGN CRD [14]; glycan concentration 75 µM, pH 7.4, read-out: Kd (COIN-nMS, individual experiments)",212 ± 2.2 µM
same,Kd,"DC-SIGN CRD [14]; glycan concentration 100 µM, pH 7.4, read-out: Kd (COIN-nMS, individual experiments)",246.7 ± 1 µM
same,Kd,"DC-SIGN CRD [14]; glycan concentration 125 µM, pH 7.4, read-out: Kd (COIN-nMS, individual experiments)",234 ± 1.5 µM
same,Kd,"DC-SIGN CRD [14]; glycans present as a mixture (G2, G5, G10, G14-G20), average of six measurements, pH 7.4, read-out: Kd (COIN-nMS)",240 ± 40 µM
same,Kd,"DC-SIGN CRD [15]; glycans present as a mixture (G2, G5, G10, G14-G20)",230 ± 20 µM
same,Kd,"DC-SIGN CRD [15]; individual glycan, ammonium acetate 200 mM, 2.5 mM calcium",231 ± 17.3 µM

# Source: PMC10303200 (ACS Central Science, 2023)
